The results in this text go back to PubChem BioAssay AID493083 (Broad Institute, 2011).

For the assay, the system named is NIH3T3 R4 HSF-1 GFP reporter, heat shock, 48 h. In words: GFP reporter loss versus dox-driven RFP – NIH3T3 R4 cells, cherry-pick, set 3, dose response (AID 493083).

What is called AC50 is the midpoint of the concentration-response curve, whichever way the signal moves.

Structures are written as SMILES. Calls of active or inactive are those of the source.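 How the source made its calls: active means compounds lowering signal whose fitted AC50 is at most ten times the top tested dose; inconclusive means flat fit with moderate inhibition, or poor curve fit; inactive means the rest.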

With `COc1ccc(C[C@H]2NC[C@H](O)[C@H]2OC(C)=O)cc1`, the AC50 was 0.551 µM.
`O=C(Nc1ccccc1Cl)/C(Cl)=C(\Cl)S(=O)c1ccccc1` (configuration not stated): the AC50 was 1.81 µM.
Take `Cc1ccc(S(=O)(=O)c2ncccc2[N+](=O)[O-])cc1`: the AC50 is 5.64 µM.
As for `O=C(CCl)Nc1cn(-c2ccccc2)nc1-c1ccc(F)cc1`, the figure is 4.77 µM; as for `O=C(CCl)N(c1ccccc1)C1CCCCC1`, 5.43 µM.
The figure for `Cc1nn(-c2ccccc2)c(N)c1C(O)(CSc1nccn1C)C(F)(F)F` (configuration not stated) is > 19.5 µM (inactive).
As to `CC(=O)Cn1ncc(Br)c(Br)c1=O`, the AC50 was 5.62 µM.
As for `CCOc1ccc(C(=O)COC(=O)Cc2n[nH]c(=O)c3ccccc23)cc1`, the figure is > 19.5 µM (inactive); as for `Cc1cc([N+](=O)[O-])c2ccccc2[n+]1[O-]`, 5.71 µM.
With `CC(C)CN=C(NS(=O)(=O)c1ccccc1)C(Cl)(Cl)Cl`, the AC50 was 16.1 µM.
Take `Cc1ccc(NC2=C/C(=N\S(=O)(=O)c3cccs3)c3ccccc3C2=O)c(C)c1`: the AC50 is 1.32 µM.
As for `O=C1C=C(NCCN2CCOCC2)C(=O)c2cnccc21`, the figure is 5.57 µM.
As for `C=C(C)C(=O)O[C@H]1C/C(C)=C\C(=O)/C=C(\C)[C@H](O)[C@@H]2OC(=O)C(=C)[C@@H]21`, the figure is 15.4 µM.
The figure for `CC(C)(C)c1ccc2c(c1)OC(C(=O)N/N=C\c1ccc[nH]1)CO2` (configuration not stated) is 0.848 µM.
With `CCOC(=O)/C(=C\c1ccc([N+](=O)[O-])cc1)C(=O)c1cc(C(C)=O)c(Nc2ccccc2)s1`, the AC50 was 11.7 µM.
As for `Cc1ccc(-n2nc(C)c3cc(C(=O)O)sc32)cc1`, the figure is > 19.5 µM (inactive); as for `CCOC(=O)Cc1nnc2c(Nc3ccccc3F)nc3nonc3n12`, 12.4 µM; as for `CCN(c1ccccc1)S(=O)(=O)c1cnc[nH]1`, > 19.5 µM (inactive).
As for `OCCCNc1nccc(-c2cc(Nc3cccc(Cl)c3)ncn2)n1`, the figure is 18.7 µM; as for `O=C(CCl)Nc1cc(SCC(O)CO)cc([N+](=O)[O-])c1` (configuration not stated), 5.73 µM; as for `COc1cc(C2CC(c3cccs3)=NN2C(=O)CCl)ccc1OC(F)F` (configuration not stated), 14.8 µM.
The figure for `CCOC(=O)C1CCN(C(=O)CC(C)c2ccccc2)CC1` (configuration not stated) is > 10 µM (inactive); for `Nc1ncnc2c1ccn2[C@@H]1O[C@H](CO)[C@@H](O)[C@H]1O` it is 10.5 µM; for `Nc1ccc2oc(C3CCCCC3)nc2c1` it is > 19.5 µM (inactive).
In the case of `O=C(CCl)Nc1ccc(-c2ccccc2)cc1`, the AC50 was 17.2 µM.
As for `COc1ccccc1-c1cc(C(F)(F)F)nc(S(=O)(=O)CCCC(=O)NCc2ccc(F)cc2)n1`, the figure is 5.18 µM.
`COc1cccc(-c2nnc3n2N=C(C(C)(C)C)CS3)c1`: the AC50 was > 19.5 µM (inactive).
The figure for `NNC(=S)NC1CC2CC1C1C=CCC21` (configuration not stated) is > 19.5 µM (inactive); for `S=C1Cc2ccccc2N1` it is 12.4 µM.
The figure for `CCCCS(=O)(=O)/C=C\C=C/S(=O)(=O)CCCC` is 5.46 µM; for `Cc1cc(C)c2nc(C(F)(F)F)c(C#N)c(N)c2c1` it is > 19.5 µM (inactive); for `C[C@H]1C[C@@H](C)C(=O)[C@@H]([C@H](O)CC2CC(=O)NC(=O)C2)C1` it is 0.336 µM.
The figure for `Cc1c(NC(=O)C2CC(c3ccc(F)cc3)=NO2)c(=O)n(-c2ccccc2)n1C` (configuration not stated) is > 19.5 µM (inactive).
For `CC[C@H]1CN2CCc3cc(OC)c(OC)cc3[C@@H]2C[C@@H]1C[C@H]1NCCc2cc(OC)c(OC)cc21`, the AC50 was 0.526 µM.
With `Cn1c(=O)c([N+](=O)[O-])c(Cl)c2ccccc21`, the AC50 was 16.9 µM.
As for `CN=c1scc(-c2ccco2)n1/N=C/c1ccc(O)c(O)c1`, the figure is 5.23 µM; as for `COc1ccc2[nH]c(=O)c(CN(Cc3cccs3)S(=O)(=O)c3c(C)ccc4nsnc34)cc2c1`, > 19.5 µM (inactive).
The figure for `O=S(=O)(c1ccc2c(c1)C(=NO)c1cc(S(=O)(=O)N3CCCCC3)ccc1-2)N1CCCCC1` is 2.08 µM; for `CCc1ccc(S(=O)(=O)/N=C2\C=C(Nc3ccc(O)cc3)C(=O)c3ccccc32)cc1` it is 1.74 µM.
As for `C#CC(=O)N(c1cc(OC)ccc1OC)C(C(=O)NC1CCCC1)c1cccs1` (configuration not stated), the figure is 5.66 µM.
Turning to `O=C(COC(=O)/C=C/c1ccc(C(F)(F)F)cc1)NC1CC1`, the AC50 is > 19.5 µM (inactive).
As for `CCOC(=O)c1c(C)[nH]c2c1-c1ccccc1C(=O)C2=O`, the figure is 1.4 µM.
As for `O=S(=O)(C/C(=C/CO)S(=O)(=O)c1ccccc1)c1ccccc1`, the figure is 5.86 µM; as for `NC(=O)C1CCN(CC(=O)Nc2nc(-c3ccccc3)cs2)CC1`, > 19.5 µM (inactive); as for `Nc1nc(F)nc2c1ncn2[C@@H]1O[C@H](CO)[C@@H](O)[C@H]1O`, 1.61 µM.
Turning to `Fc1ccc(-n2cc(-c3ccccc3)c3c(N4CCOCC4)ncnc32)cc1`, the AC50 was > 19.5 µM (inactive).
The figure for `CC12CCC(C/C1=N\N=C1\NC(=O)/C(=C\c3ccc(Cl)cc3)S1)C2(C)C` (configuration not stated) is 2.4 µM.
